Laboratory results taken from ChEMBL document CHEMBL3885861, “Open TG-GATES”.

Organism: Rattus norvegicus
Assay: Open TG-GATES - Regimen: Daily Repeat
Type: toxicity, organism-based, Sprague-Dawley
Design: regimen Daily Repeat, gender Male, age 6 weeks
Conditions: in vivo, po, 300 mg/kg, route gavage, dose level Middle; for APTT / Bas / Eos / Fbg / Hb / Ht / Lym / MCH / MCHC / MCV / Mono / Neu / PT / Plat / RBC / Ret / WBC: tissue Blood; for KIDNEY_L / KIDNEY_R / KIDNEY_TOTAL: tissue Kidney; for LIVER: tissue Liver; for A/G / ALP / ALT / AST / BUN / CRE / Ca / Cl / DBIL / GLC / IP / K / LDH / Na / PL / RALB / TBIL / TC / TG / TP / gamma-GTP: tissue Plasma

CC[C@@H](CO)NCCN[C@@H](CC)CO [ETHAMBUTOL]
TERMINAL_BW (72 h, time 3 day): 239.4 g
APTT (72 h, time 3 day): 21.6 s
Bas (72 h, time 3 day): 0%
Eos (72 h, time 3 day): 1%
Fbg (72 h, time 3 day): 330.2 mg/dL
Hb (72 h, time 3 day): 13.7 g/dL
Ht (72 h, time 3 day): 40%
Lym (72 h, time 3 day): 75%
MCH (72 h, time 3 day): 21.8 pg
MCHC (72 h, time 3 day): 34.3%
MCV (72 h, time 3 day): 63.4 fL
Mono (72 h, time 3 day): 3%
Neu (72 h, time 3 day): 19.4%
PT (72 h, time 3 day): 15.9 s
Plat (72 h, time 3 day): 113.3 x10_4/uL
RBC (72 h, time 3 day): 630 x10_4/ul
Ret (72 h, time 3 day): 6.3%
WBC (72 h, time 3 day): 92.4 x10_2/uL
KIDNEY_L (72 h, time 3 day): 1 g
KIDNEY_R (72 h, time 3 day): 1.1 g
KIDNEY_TOTAL (72 h, time 3 day): 2.1 g
LIVER (72 h, time 3 day): 12.5 g
A/G (72 h, time 3 day): 1.3
ALP (72 h, time 3 day): 1720.4 IU/L
ALT (72 h, time 3 day): 43 IU/L
AST (72 h, time 3 day): 71 IU/L
BUN (72 h, time 3 day): 17.6 mg/dL
CRE (72 h, time 3 day): 0.2 mg/dL
Ca (72 h, time 3 day): 10.7 mg/dL
Cl (72 h, time 3 day): 108 meq/L
DBIL (72 h, time 3 day): 0 mg/dL
GLC (72 h, time 3 day): 209.6 mg/dL
IP (72 h, time 3 day): 7.6 mg/dL
K (72 h, time 3 day): 3.9 meq/L
LDH (72 h, time 3 day): 164.2 IU/L
Na (72 h, time 3 day): 140.8 meq/L
PL (72 h, time 3 day): 163.4 mg/dL
RALB (72 h, time 3 day): 3.2 g/dL
TBIL (72 h, time 3 day): 0.01 mg/dL
TC (72 h, time 3 day): 90.2 mg/dL
TG (72 h, time 3 day): 87.6 mg/dL
TP (72 h, time 3 day): 5.7 g/dL
gamma-GTP (72 h, time 3 day): 1.4 IU/L
TERMINAL_BW ([…], time 7 day): 262.8 g
TERMINAL_BW ([…], time 14 day): 299.9 g
TERMINAL_BW ([…], time 28 day): 296 g
APTT ([…], time 7 day): 20.8 s
Bas ([…], time 7 day): 0%
Eos ([…], time 7 day): 0.8%
Fbg ([…], time 7 day): 303.8 mg/dL
Hb ([…], time 7 day): 14.2 g/dL
Ht ([…], time 7 day): 41.4%
Lym ([…], time 7 day): 82.2%
MCH ([…], time 7 day): 20.7 pg
MCHC ([…], time 7 day): 34.3%
MCV ([…], time 7 day): 60.2 fL
Mono ([…], time 7 day): 2.4%
Neu ([…], time 7 day): 13%
PT ([…], time 7 day): 16.4 s
Plat ([…], time 7 day): 113.9 x10_4/uL
RBC ([…], time 7 day): 688.8 x10_4/ul
Ret ([…], time 7 day): 4.2%
WBC ([…], time 7 day): 98.6 x10_2/uL
APTT ([…], time 14 day): 20.4 s
Bas ([…], time 14 day): 0%
Eos ([…], time 14 day): 1%
Fbg ([…], time 14 day): 274.2 mg/dL
Hb ([…], time 14 day): 14.2 g/dL
Ht ([…], time 14 day): 42.3%
Lym ([…], time 14 day): 82.2%
MCH ([…], time 14 day): 19.2 pg
MCHC ([…], time 14 day): 33.7%
MCV ([…], time 14 day): 57 fL
Mono ([…], time 14 day): 2.4%
Neu ([…], time 14 day): 13.2%
PT ([…], time 14 day): 16.8 s
Plat ([…], time 14 day): 86.9 x10_4/uL
RBC ([…], time 14 day): 742.8 x10_4/ul
Ret ([…], time 14 day): 2.3%
WBC ([…], time 14 day): 118.5 x10_2/uL
APTT ([…], time 28 day): 21.4 s
Bas ([…], time 28 day): 0%
Eos ([…], time 28 day): 1.2%
Fbg ([…], time 28 day): 257.5 mg/dL
Hb ([…], time 28 day): 14.6 g/dL
Ht ([…], time 28 day): 42.3%
Lym ([…], time 28 day): 77.2%
MCH ([…], time 28 day): 17.9 pg
MCHC ([…], time 28 day): 34.5%
MCV ([…], time 28 day): 51.8 fL
Mono ([…], time 28 day): 2.8%
Neu ([…], time 28 day): 17.2%
PT ([…], time 28 day): 17.8 s
Plat ([…], time 28 day): 82.7 x10_4/uL
RBC ([…], time 28 day): 817.8 x10_4/ul
Ret ([…], time 28 day): 2%
WBC ([…], time 28 day): 127.3 x10_2/uL
KIDNEY_L ([…], time 7 day): 1.1 g
KIDNEY_R ([…], time 7 day): 1.1 g
KIDNEY_TOTAL ([…], time 7 day): 2.2 g
KIDNEY_L ([…], time 14 day): 1.3 g
KIDNEY_R ([…], time 14 day): 1.3 g
KIDNEY_TOTAL ([…], time 14 day): 2.6 g
KIDNEY_L ([…], time 28 day): 1.2 g
KIDNEY_R ([…], time 28 day): 1.3 g
KIDNEY_TOTAL ([…], time 28 day): 2.5 g
LIVER ([…], time 7 day): 12.5 g
LIVER ([…], time 14 day): 15.8 g
LIVER ([…], time 28 day): 14.5 g
A/G ([…], time 7 day): 1.1
ALP ([…], time 7 day): 1774.8 IU/L
ALT ([…], time 7 day): 60.2 IU/L
AST ([…], time 7 day): 92.2 IU/L
BUN ([…], time 7 day): 20.4 mg/dL
CRE ([…], time 7 day): 0.2 mg/dL
Ca ([…], time 7 day): 10.2 mg/dL
Cl ([…], time 7 day): 107.4 meq/L
DBIL ([…], time 7 day): 0.002 mg/dL
GLC ([…], time 7 day): 172.2 mg/dL
IP ([…], time 7 day): 7.9 mg/dL
K ([…], time 7 day): 4 meq/L
LDH ([…], time 7 day): 196 IU/L
Na ([…], time 7 day): 142.2 meq/L
PL ([…], time 7 day): 141.4 mg/dL
RALB ([…], time 7 day): 2.8 g/dL
TBIL ([…], time 7 day): 0.026 mg/dL
TC ([…], time 7 day): 73 mg/dL
TG ([…], time 7 day): 43.2 mg/dL
TP ([…], time 7 day): 5.3 g/dL
gamma-GTP ([…], time 7 day): 1.8 IU/L
A/G ([…], time 14 day): 1.1
ALP ([…], time 14 day): 2103.2 IU/L
ALT ([…], time 14 day): 68 IU/L
AST ([…], time 14 day): 115.2 IU/L
BUN ([…], time 14 day): 24.4 mg/dL
CRE ([…], time 14 day): 0.2 mg/dL
Ca ([…], time 14 day): 9.8 mg/dL
Cl ([…], time 14 day): 106.4 meq/L
DBIL ([…], time 14 day): 0.02 mg/dL
GLC ([…], time 14 day): 197 mg/dL
IP ([…], time 14 day): 7.2 mg/dL
K ([…], time 14 day): 4.6 meq/L
LDH ([…], time 14 day): 520.6 IU/L
Na ([…], time 14 day): 139.8 meq/L
PL ([…], time 14 day): 139.8 mg/dL
RALB ([…], time 14 day): 2.6 g/dL
TBIL ([…], time 14 day): 0.042 mg/dL
TC ([…], time 14 day): 79.4 mg/dL
TG ([…], time 14 day): 26.4 mg/dL
TP ([…], time 14 day): 4.9 g/dL
gamma-GTP ([…], time 14 day): 1.8 IU/L
A/G ([…], time 28 day): 1
ALP ([…], time 28 day): 1083.5 IU/L
ALT ([…], time 28 day): 66.5 IU/L
AST ([…], time 28 day): 136 IU/L
BUN ([…], time 28 day): 19.2 mg/dL
CRE ([…], time 28 day): 0.2 mg/dL
Ca ([…], time 28 day): 9.4 mg/dL
Cl ([…], time 28 day): 109.8 meq/L
DBIL ([…], time 28 day): 0.0275 mg/dL
GLC ([…], time 28 day): 209 mg/dL
IP ([…], time 28 day): 6.8 mg/dL
K ([…], time 28 day): 4.2 meq/L
LDH ([…], time 28 day): 602.8 IU/L
Na ([…], time 28 day): 140.5 meq/L
PL ([…], time 28 day): 117.5 mg/dL
RALB ([…], time 28 day): 2.6 g/dL
TBIL ([…], time 28 day): 0.055 mg/dL
TC ([…], time 28 day): 70.5 mg/dL
TG ([…], time 28 day): 24.5 mg/dL
TP ([…], time 28 day): 5.3 g/dL
gamma-GTP ([…], time 28 day): 1.5 IU/L
